How the values were obtained:
[1] = Dissolution test by immersion into simulated gastric fluid (USP apparatus II), then pH raised to 7.2; format: physicochemical
Protocol: The dissolution profile of the trilayered tablets prepared as described in examples 1, 2 and 3 was determined by immersion into simulated gastric fluid (USP apparatus II for dissolution test).
After immersion, the tablets (n = 6) placed themselves on the bottom of the vessel and the development of CO2 bubbles which remained entrapped into the hydroxypropylmethylcellulose gel formed in contact with the aqueous medium was observed from layer A. At the same time, layer B rapidly disintegrated in correspondence with the side surface of the layer exposed to the simulated gastric fluid.
The dissolution profile of the trilayered tablets prepared as described in examples 6, and 7 was determined by immersion into simulated gastric fluid (USP apparatus II for dissolution test).

[2] = Dissolution rate under simulated fasting and fed conditions (SGF pH 1.2, FaSSGF pH 1.6, FeSSGFm pH 5.0); format: physicochemical; conditions: tablets of example 2
Protocol: The dissolution rate of trilayered tablets prepared as described in example 2, was evaluated also under simulated fasting and fed conditions. The evaluation was carried out under the following conditions: simulated gastric fluid at pH1.2 (SGF), simulated gastric fluid at pH 1.6 (FaSSGF) for fasting conditions and simulated gastric fluid at pH 5.0 (FeSSGFm) for fed conditions.

[3] = In vivo study: plasma levels after single dose of three layer tablet in fasting and fed conditions, randomized cross-over, HPLC/MS/MS; conditions: for AUC(0-inf): AUCinf; for time plasma levels were maintained at plateau: three layer tablet of example 4, Figure 6
Protocol: A three layer tablet of gabapentin 375 mg and flurbiprofen 37.5 mg, prepared as described in example 4, was administered to 24 healthy male and female subjects, 18-55 years old, in fasting conditions and after a high fat meal in single dose according to a randomized cross-over design. The treatment periods were separated by a wash out interval of at least 5 days.
Each dose was taken with 240 mL of water in fasting conditions from at least 10 hours or 30 minutes after a standardized meal, which was high-caloric (approximately 1000 Kcal) and high-fat (approximately 50 percent of total caloric content of the meal).
Gabapentin and flurbiprofen plasma levels were determined by a validated HPLC/MS/MS analytical method at the following times: pre-dose, 0.5, 1, 1.5, 2, 3, 4, 5, 6, 7, 8, 10, 12, 16, 24 and 32 h post-dose.

[4] = both, human, in vivo, Fed conditions (high fat meal), three layer tablet of example 4, single dose, arithmetic mean ± s.d., n=24
[5] = three layer tablet of example 4, single dose

In the case of `NCC1(CC(=O)O)CCCCC1` [gabapentin], the “release time of gabapentin contained in layer B” value (shortened to “release time … in layer B”) ([1]; tablets of example 1) is reported as ≤ 5 min, the “release time of remaining dose of gabapentin contained in layer A” value (“release time of remaining dose … in layer A” for short) ([1]; tablets of example 1, slow prolonged release) is reported as “about 8 hours” and the “release time … in layer B” value ([1]; tablets of example 2) is reported as ≤ 15 min. For the same molecule, the “release time of remaining dose … in layer A” value ([1]; tablets of example 2, slow prolonged release) was “about 9 hours”, the “release time … in layer B” value ([1]; tablets of example 3) was ≤ 15 min and the “release time of remaining dose … in layer A” value ([1]; tablets of example 3, slow prolonged release) was “about 9 hours”. The “release time … in layer B” value ([1]; tablets of example 6) was ≤ 15 min, the “release of remaining dose of gabapentin contained in layer A” value ([1]; tablets of example 6, in about 9 hours, slow prolonged release) was 90% and the “release time … in layer B” value ([1]; tablets of example 7) was ≤ 15 min. The “release time of remaining dose … in layer A” value ([1]; tablets of example 7, slow prolonged release) was “about 9 hours”, the “f2 factor, similarity index between SGF and FaSSGF release profiles” value ([2]; pH 1.2 vs pH 1.6) was 83 and the “f2 factor, similarity index between SGF and FeSSGFm release profiles” value ([2]; pH 1.2 vs pH 5.0) was 65.8. For the same molecule, the “f2 factor, similarity index between FaSSFG and FeSSGFm release profiles” value ([2]; pH 1.6 vs pH 5.0) was 55.7, the “comparison of dissolution profiles in SGF, FaSSGF and FeSSGFm” value ([2]; result in words) was “did not show significant differences” and the AUC(0-inf) ([3]; both, human, in vivo, Fasting conditions, three layer tablet of example 4, single dose, arithmetic mean ± s.d., n=24) was 24100 ± 8150 ng·h/mL. It also gave an AUC(0-inf) [3, 4] of 39200 ± 9070 ng·h/mL, a Cmax ([3]; both, human, in vivo, Fasting conditions, three layer tablet of example 4 (gabapentin 375 mg, flurbiprofen 37.5 mg), single dose, arithmetic mean ± s.d., n=24) of 2340 ± 748 ng/mL and a Cmax [3, 4] of 3080 ± 727 ng/mL. The Tmax ([3]; both, human, in vivo, Fasting conditions, three layer tablet of example 4, single dose, median (min - max), n=24) was 4 h, the Tmax ([3]; both, human, in vivo, Fed conditions (high fat meal), three layer tablet of example 4, single dose, median (min - max), n=24) was 5 h and the “time plasma levels were maintained at plateau” value ([3]; fasting conditions) was “about 4 hours”. The “time plasma levels were maintained at plateau” value ([3]; fed conditions) was 8 h, the “Ratio of geometric means, AUCinf, Test / Reference (Fed / fasting)” value [3, 5] was 167% and the “Ratio of geometric means, Cmax, Test / Reference (Fed / fasting)” value [3, 5] was 136%.

In the case of `CC(C(=O)O)c1ccc(-c2ccccc2)c(F)c1` (stereo not shown) [flurbiprofen], the “release of flurbiprofen contained in layer C in simulated gastric fluid” value (“release … in simulated gastric fluid” for short) ([1]; tablets of example 1, before raising the pH) is reported as “not released in the first hour”, the “release of flurbiprofen contained in layer C after having raised the pH to 7.2” value (shortened to “release of flurbiprofen contained … to 7.2”) ([1]; tablets of example 1, in 5 hours, linear release) is reported as 100% and the “release of flurbiprofen contained … to 7.2” value ([1]; tablets of example 2, in 6 hours, linear release) is reported as 90%. For the same molecule, the “release … in simulated gastric fluid” value ([1]; tablets of example 2, pH 1.2) was “not released at pH 1.2”, the “release of flurbiprofen contained … to 7.2” value ([1]; tablets of example 3, in 6 hours, linear release) was 90% and the “release … in simulated gastric fluid” value ([1]; tablets of example 3, pH 1.2) was “not released at pH 1.2”. The “release … in simulated gastric fluid” value ([1]; tablets of example 6, before raising the pH) was “not released in the first hour”, the “release of flurbiprofen contained … to 7.2” value ([1]; tablets of example 6, in 5 hours) was 100% and the “release of flurbiprofen contained … to 7.2” value ([1]; tablets of example 7, in 7 hours, linear release) was 90%. For the same molecule, the “release … in simulated gastric fluid” value ([1]; tablets of example 7, pH 1.2) was “not released at pH 1.2”, the “Ratio of geometric means, AUCinf, Test / Reference (Fed / fasting)” value ([3]; both, human, in vivo) was 98% and the “Ratio of geometric means, Cmax, Test / Reference (Fed / fasting)” value ([3]; both, human, in vivo) was 157%. For the same molecule, the “time after intake up to which release was very low” value ([3]; both, human, in vivo) was “up to 2 hours”, the “time post dose at which plasma levels reached a plateau” value ([3]; both, human, in vivo) was “around 4 hour” and the AUC(0-inf) ([3]; both, human, in vivo) was 35700 ± 13200 ng·h/mL. The Tmax ([3]; both, human, in vivo) was 12 h.
